# Measurements from paper PMC8949075, “Evaluation of Two Novel Hydantoin Derivatives Using Reconstructed Human Skin Model Episkin^TM: Perspectives for Application as Potential Sunscreen Agents” (Molecules, 2022).
# Experiments:
# [1] = CHO-K1 cytotoxicity assay (MTT); assay type: cell-based; conditions: Chinese hamster, CHO-K1 cells, concentrations ranging from 1 to 10 µM
# Procedure: The Chinese hamster ovary CHO-K1 cell line was obtained from the American Type Culture Collection (ATCC CCL-61). The CHO-K1 cell line was cultured in a humidified incubator at 37 °C with 5% CO2, in F-12K Medium (Kaighn’s Modification of Ham’s F-12 Medium) (ATCC) supplemented with 10% fetal bovine serum (FBS; Gibco, Waltham, MA, USA) and antibiotics (1% streptomycin/penicillin salts mixture, Sigma–Aldrich, Darmstadt, Germany).
# The cells were seeded at a density of 6 × 10^3 on 96-well plates. […] Test compounds and 4MBC were dissolved in DMSO (solvent, final concentration 0.1%) and ethanol (co-solvent, final concentration 1%). At the end of the incubation period, 10 µL of MTT reagent was added to each well. After 4 h incubation (37 °C, 5% CO2), the medium was discarded, and the formazan produced in the cells appeared as dark crystals in the bottom of the wells. Next, pure DMSO was added to each well. The optical density data of converted dye was measured at 570 nm (A570) on microplate reader. […] The experiment was conducted two times with three repetitions for each condition.
# CHO-K1 cells = test: In vitro micronucleus assay; assay type: cell-based, Chinese hamster
# Procedure: The CHO-K1 cells were seeded in 6-well plates at a density of 1 × 10^6 cells/well and incubated overnight at 37 °C, 5% CO2 atmosphere. […] The test compounds and 4MBC were dissolved in DMSO (solvent, final concentration 0.1%) and ethanol (co-solvent, final concentration 1%). After 24 h of treatment, the medium was removed, and the cells were rinsed with PBS. Then, fresh medium containing cytochalasin B (CytB; Sigma Aldrich, Darmstadt, Germany) (4.5 µg/mL) was added and incubation was continued for the next 24 h.
# After the incubation period, the cells were washed with fresh medium, detached by trypsinization, and centrifuged. The supernatant was discarded and 5 mL of 1% ice-cold sodium citrate (Chempur, Piekary Śląskie, Poland) was added to the cell pellet, which was then gently resuspended. After 15 s, 5 mL of freshly prepared fixative solution (methanol/acetic acid, 3:1) and 4 drops of formaldehyde were added. The cell suspension was centrifuged (5 min, 1000 rpm), the supernatant was discarded again, and the pellet was fixed in fixative mixture two more times, without formaldehyde. After the third fixation, part of the supernatant was removed, and around 1 mL of the supernatant was retained to resuspend the cells. The suspension was then dripped onto clean, previously frozen, glass slides to dry. After air-drying, the slides were stained with Giemsa dye (1:20 in phosphate buffer) for 5 min [56, 78, 79].
# One thousand binucleated cells per slide with intact nuclei of equal size, similar pattern of cytoplasm staining, intact membrane, and distinguishable from adjacent cells, without apoptotic and necrotic cells were analyzed. Only the micronuclei with the same morphology and color of the main nuclei, with 1/16 to 1/3 of the major nucleus diameter, unrefringent and not overlapping or connected to the main nuclei were counted. Moreover, the presence of dicentric bridges (DB) and nuclear buds (NB) in the binucleated cells was analyzed. The nuclear division index (NDI) was calculated using the following formula: [(1 × MOC) + (2 × BC) + (3 × MUC)]/N, where MOC is the number of mononuclear cells, BC is the number of binuclear cells, MUC represents the number of multinuclear cells, and N is the total number of scored cells. The micronucleus incidence was presented as a number of micronuclei per 1000 examined binuclear cells. The experiment was conducted two times with three repetitions for each condition.
# [2] = Episkin skin permeation test (finite dose, OECD 428); assay type: in vitro ADME, human; conditions: human; 24 h exposure, 10 mg/cm^2 finite dose, 2% formulation; read-out: recovery in the epidermis (of the applied dose)
# Procedure: (§1) The MM was provided by the manufacturer.
# (§2) The receptor fluid composition was based on the pilot experiments.
# (§3) The formulations of the test compounds (JH3 and JH10) and commercial UV filters were applied onto the skin surface in the donor compartment in a net dose of 10 mg/cm^2 (finite dose application) using disposable flexible loops. To quantify the dose of the formulation applied on the top of the Episkin^TM model, the loops were weighed, filled with approximately 11 mg of formulation, and then reweighed. The difference in weight was used as the amount of formulation applied. Commercial UV filters such as BP3, 4MBC, and AVO were used as reference standards. The filters were obtained from Sigma-Aldrich, Darmstadt, Germany.
# (§4) The plate with tissues was embedded with parafilm and incubated at specific time points at 32 °C. As the passive diffusion of chemicals (and therefore their skin absorption) is affected by temperature, the diffusion chamber and skin were maintained at a constant temperature close to normal skin temperature of 32 ± 1 °C [19, 23, 30, 32]. At fixed time points (0, 1, 2, 3, 4, 5, 6, and 24 h), aliquots of the receptor fluid (0.5 mL) were collected from the receptor compartment and immediately replaced with fresh fluid. After 24 h the entire receptor fluid was collected, and the skin surface was washed thoroughly with cotton buds impregnated in methanol (5 times). The tissues were removed from the inserts and both the donor and receptor compartments were washed separately with methanol. The samples were stored at −20 °C until chemical analysis.
# (§5) All samples were spiked with 25 µL of pentoxifylline (PTX, Sigma-Aldrich, Darmstadt, Germany) (final concentration of 20 µM) used as an internal standard prior to extraction. The samples were analyzed using ultra high-pressure liquid chromatography coupled with mass spectrometry (UHPLC/MS; Waters Corporation, Milford, MA, USA). Quantification was based on peak area and calculated from standard calibration curves of the compound adjusted by the internal standard area. The assay was in agreement with the Organization for Economic Co-operation and Development (OECD) guideline 428 [19].
# [3] = test system: Episkin^TM reconstructed human epidermis; test: as above; assay type: in vitro ADME; conditions: 2% formulation; for absorbed amount detected in the RF (of the applied dose): 24 h exposure, 10 mg/cm^2 finite dose; for detection in the receptor fluid over time: sampling 0-6 and 24 h; for detection in the receptor fluid over time / absorption rate (amount in receptor fluid): 10 mg/cm^2; for absorption rate (amount in receptor fluid): after 24 h
# Procedure: as §1, §2, §3, §4, §5
# [4] = design: method as in earlier work; conditions: cited from earlier work
# [5] = cited from earlier work
# [6] = design: method as in PMID 26674115; conditions: cited from earlier work
# [7] = Episkin phototoxicity test (UVA 50 J/cm^2; MTT viability, Il-1α release); assay type: cell-based, human; conditions: human; 0.5 mM, UVA 50 J/cm^2; read-out: tissue viability after UVA exposure compared to non-irradiated epidermis
# Procedure: as §1
# Compounds JH3 and JH10 (final concentrations of 0.5 and 1 mM) solubilized in ethanol (final concentration of 1% in water) were applied topically on the tissue surface. Chlorpromazine (CPZ, chlorpromazine hydrochloride, C17H19ClN2S·HCl, CAS number: 69-09-0, molecular weight: […], purity: meets USP testing specifications, Sigma-Aldrich, Darmstadt, Germany) (final concentration of 0.5 mM, based on literature data) was used as a positive control, whereas solvent alone served as a negative control.
# Duplicate plates were prepared for UVA and dark (controls) exposure purposes. After the treatment period of 2 h, the excess test compound was removed from each well, and the tissues were exposed to UVA at a non-cytotoxic dose of 50 J/cm^2 ([…] at 250 W/m^2) with a solar light simulator equipped with a window glass filter and ID65 filter (Suntest CPS+, Atlas, Linsengericht, Germany). The emitted spectrum contained both UV and visible outputs with a UV cut-on of approx. 320 nm and corresponded to ID65 per ISO 10,977 [74]. The irradiance level between 320 and 400 nm was approximated by the following equation: W/m^2 (320–400 nm) = W/m^2 (300–800 nm) ÷ 11.5. In parallel, the non-irradiated treated tissues were placed in the dark under the same conditions. […] Next, cell viability was assessed using an MTT conversion test and the culture media aliquots were kept frozen (−20 °C) for Il-1α measurement (see 2.3.2. The Episkin^TM skin irritation test method section).
# [8] = test system: Episkin^TM reconstructed human epidermis; test: Episkin skin irritation test (MTT viability, Il-1α release; OECD 439); conditions: 26 mg/cm^2 topical, 15 min exposure, 42 h post-incubation
# Text: The Episkin^TM model (aged 13 days, large/1.07 cm^2 surface area) was provided by Episkin (Lyon, France). The Episkin^TM kit consists of 12 reconstructed epidermis units made of type I collagen matrix, representing the dermis, surfaced with a film of type IV collagen, upon which is laid a stratified and differentiated epidermis derived from human keratinocytes [17]. Upon receipt of the tissues, the culture inserts were removed from the agarose-nutrient solution and transferred into 12-well plates containing 2 mL of the maintenance medium (MM) per well. The MM was provided by the manufacturer. Tissues were then incubated for 24 h at 37 °C in a humidified atmosphere of 5% CO2 before use in the permeation, irritation, or phototoxicity experiments.
# Prior to the irritation experiments, the Episkin^TM inserts were washed with sterile PBS to remove traces of the MM and transferred into new 12-well plates containing 2 mL of fresh MM. […] Sodium dodecyl sulphate (SDS; Sigma-Aldrich, Darmstadt, Germany) (5% in water) and PBS were used as positive and negative controls, respectively. Both controls were applied topically (26 mg/cm^2). Samples were tested in two independent experiments using three tissues for each chemical, positive, or negative control.
# Then, the tissues were placed in new 12-well plates containing 2 mL of the MM per well and incubated for an additional 42 h at 37 °C in a humidified atmosphere of 5% CO2 as post-treatment incubation time. At the end of this period, the culture media of each tissue were collected and stored at −20 °C for Il-1α measurement.
# The cell viability was assessed by a subsequent incubation of the tissues for 3 h with freshly prepared 3-(4,5-dimethylthiazol-2-yl)-2,5-diphenyltetrazolium bromide (MTT; Sigma-Aldrich, Darmstadt, Germany) solution (0.3 mg/mL in assay medium (AM)) in a 12-well plate. Then, a biopsy of the epidermis was done using a puncher (Episkin, Lyon, France), and the precipitated formazan was extracted using 500 µL of acidified isopropanol (Chempur, Piekary Śląskie, Poland) (0.04 N HCl in isopropanol) for 48 h (4 °C). At the end of the extraction period, 200 µL of each sample were transferred to 96-well plates for absorbance measurements at 570 nm (A570) [70, 71, 72, 73]. […] Viability (percent of control) was determined by dividing A570 of experimental wells by A570 of control wells × 100%. The test substance was considered as an irritant when mean tissue viability was equal or less than 50% [16, 17].
# Il-1α measurement was conducted by a classic enzyme-linked immunosorbent assay (ELISA) technique (Cayman Chemical, Ann Arbor, MI, USA). Firstly, 100 µL of the samples were added into a 96-well ready to use microtiter plate (precoated with a monoclonal antibody specific for Il-1α (Il-1α capture antibody). Secondly, 100 µL of an acetylcholinesterase:Fab’ Conjugate (AChE:Fab’) was added to each well. The plate was covered with plastic film and incubated overnight at 4 °C. At the end of the incubation period the contents of each well were removed and rinsed five times with wash buffer. Next, 200 µL of Ellman’s reagent (containing the substrate for AChE) was added to each well, the plate was covered with plastic film and developed in the dark using an orbital shaker. The absorbance of the wells was measured at 410 nm. Il-1α concentrations were then calculated using the standard curve.
compound,measurement,setting,value
"Cc1ccc(C=C2C(=O)C3(C)CCC2C3(C)C)cc1 (stereo not drawn) [4MBC, 3-(4-methylbenzylidene) camphor, reference compound]",viability at 24 h,[1],> 75%
same,DB (dicentric bridges),"CHO-K1 cells; Chinese hamster, 24 h, 1 µM",4.6
same,MN (micronuclei),"CHO-K1 cells; Chinese hamster, 24 h, 1 µM",8.3 ± 2.9
same,NB (nuclear buds),"CHO-K1 cells; Chinese hamster, 24 h, 1 µM",3.7
same,NDI (nuclear division index),"CHO-K1 cells; Chinese hamster, 24 h, 1 µM",1.35
same,DB (dicentric bridges),"CHO-K1 cells; Chinese hamster, 24 h, 5 µM",4.5
same,MN (micronuclei),"CHO-K1 cells; Chinese hamster, 24 h, 5 µM",9.0 ± 3.4
same,NB (nuclear buds),"CHO-K1 cells; Chinese hamster, 24 h, 5 µM",3.5
same,NDI (nuclear division index),"CHO-K1 cells; Chinese hamster, 24 h, 5 µM",1.30
same,DB (dicentric bridges),"CHO-K1 cells; Chinese hamster, 24 h, 10 µM",3.4
same,MN (micronuclei),"CHO-K1 cells; Chinese hamster, 24 h, 10 µM",7.3 ± 4.4
same,NB (nuclear buds),"CHO-K1 cells; Chinese hamster, 24 h, 10 µM",4.9
same,NDI (nuclear division index),"CHO-K1 cells; Chinese hamster, 24 h, 10 µM",1.39
same,"recovery at 24 h, 2 % in formulation",[2],28%
same,absorbed amount detected in the RF (of the applied dose),[3],3%
same,detection in the receptor fluid over time,[3],detected only after 24 h exposure
same,in vitro chromosomal aberration test result,[4],negative
same,bacterial mutation (Ames) assay result,[5],negative
same,log P,[6],4.95
"COc1ccc(C(=O)CC(=O)c2ccc(C(C)(C)C)cc2)cc1 [AVO, avobenzone]","recovery at 24 h, 2 % in formulation",[2],16%
same,absorbed amount detected in the RF (of the applied dose),[3],about 1%
same,absorption rate (amount in receptor fluid),[3],3 µg/cm^2
same,log P,[6],4.51
"COc1ccc(C(=O)c2ccccc2)c(O)c1 [BP3, benzophenone-3]","recovery at 24 h, 2 % in formulation",[2],18%
same,absorbed amount detected in the RF (of the applied dose),[3],12%
same,absorption rate (amount in receptor fluid),[3],20 µg/cm^2
same,detection in the receptor fluid over time,[3],clearly detectable after the third hour
"CN(C)CCCN1c2ccccc2Sc2ccc(Cl)cc21 [CPZ, Chlorpromazine, reference compound]","viability at 2 h, 0.5 mM",[7],~40%
"CO[C@@]12[C@H](COC(N)=O)C3=C(C(=O)C(C)=C(N)C3=O)N1C[C@@H]1N[C@@H]12 [MMC, Mitomycin C, reference compound]",increase in the number of MNs vs normal and vehicle control,CHO-K1 cells; 0.5 µg/mL,approximately 10 fold
same,increase in the number of NBs vs normal and vehicle control,CHO-K1 cells; 0.5 µg/mL,7 fold
same,MN (micronuclei),"CHO-K1 cells; 0.5 µg/mL (positive control), count in 1000 binucleated cells per slide",88.5 ± 6.5
"CCCCCCCCCCCCOS(=O)(=O)[O-].[Na+] [SDS, Sodium dodecyl sulphate, reference compound]",Il-1α release,[8],96 pg/mL
same,mean tissue viability,[8]; vs negative control,approximately 10%
